{"source": "ChEMBL document CHEMBL5154928", "about": "“Structure-Aided Design, Synthesis, and Biological Evaluation of Potent and Selective Non-Nucleoside Inhibitors Targeting Protein Arginine Methyltransferase 5” (J Med Chem, 2022)", "key": {"[1]": {"molecular_target": "Protein arginine N-methyltransferase 1 (Homo sapiens, UniProt Q99873)", "sequence (Q99873 whole entry, the tested form may be a part)": "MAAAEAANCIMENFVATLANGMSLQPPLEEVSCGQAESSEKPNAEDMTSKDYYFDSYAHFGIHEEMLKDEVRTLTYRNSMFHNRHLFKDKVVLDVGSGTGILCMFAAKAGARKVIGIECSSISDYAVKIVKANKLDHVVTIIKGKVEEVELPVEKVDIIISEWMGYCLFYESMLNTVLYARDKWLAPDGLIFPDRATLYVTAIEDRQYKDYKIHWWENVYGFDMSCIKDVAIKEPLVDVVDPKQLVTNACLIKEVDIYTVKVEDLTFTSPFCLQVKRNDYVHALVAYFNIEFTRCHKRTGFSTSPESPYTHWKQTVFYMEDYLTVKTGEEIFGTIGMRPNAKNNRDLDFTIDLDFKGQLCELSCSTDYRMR", "assay": "Inhibition of PRMT1 (unknown origin) using histone H4 (1 to 21 residues) peptide as substrate incubated for 210 mins in presence of SAM by AlphaLISA assay"}, "[2]": {"assay": "Metabolic stability in human liver microsomes assessed as half life incubated for 10 mins measured up to 60 mins in presence of NADPH by LC-MS/MS analysis", "type": "ADME, Microsome"}, "[3]": {"molecular_target": "Histone-lysine N-methyltransferase EZH2 (Homo sapiens, UniProt Q15910)", "sequence (Q15910 whole entry)": "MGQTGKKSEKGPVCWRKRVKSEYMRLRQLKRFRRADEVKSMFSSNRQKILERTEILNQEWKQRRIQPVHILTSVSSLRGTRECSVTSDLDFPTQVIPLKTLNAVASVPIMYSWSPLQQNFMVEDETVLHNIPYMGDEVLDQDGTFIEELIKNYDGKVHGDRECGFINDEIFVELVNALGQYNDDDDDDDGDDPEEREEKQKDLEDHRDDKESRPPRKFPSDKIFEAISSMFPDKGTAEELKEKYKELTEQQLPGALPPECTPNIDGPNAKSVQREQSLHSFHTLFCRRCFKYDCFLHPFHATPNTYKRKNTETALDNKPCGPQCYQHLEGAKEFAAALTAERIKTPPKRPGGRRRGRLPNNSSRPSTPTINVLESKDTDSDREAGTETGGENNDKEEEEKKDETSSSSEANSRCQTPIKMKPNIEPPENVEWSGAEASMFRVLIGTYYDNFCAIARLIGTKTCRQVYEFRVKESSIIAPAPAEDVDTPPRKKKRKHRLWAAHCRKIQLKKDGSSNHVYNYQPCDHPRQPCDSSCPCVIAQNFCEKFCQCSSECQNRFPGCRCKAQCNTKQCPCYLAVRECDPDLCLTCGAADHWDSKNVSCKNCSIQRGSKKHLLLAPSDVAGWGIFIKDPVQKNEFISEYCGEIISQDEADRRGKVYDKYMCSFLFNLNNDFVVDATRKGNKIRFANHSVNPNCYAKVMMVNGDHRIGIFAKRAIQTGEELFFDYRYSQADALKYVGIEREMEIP", "assay": "Inhibition of EZH2 (unknown origin) using peptide substrate preincubated for 10 mins followed by substrate addition for 4 hrs by HTRF assay"}, "[4]": {"molecular_target": "T1, Histone-lysine N-methyltransferase NSD2 (Homo sapiens, UniProt O96028)", "T1 sequence (O96028 whole entry)": "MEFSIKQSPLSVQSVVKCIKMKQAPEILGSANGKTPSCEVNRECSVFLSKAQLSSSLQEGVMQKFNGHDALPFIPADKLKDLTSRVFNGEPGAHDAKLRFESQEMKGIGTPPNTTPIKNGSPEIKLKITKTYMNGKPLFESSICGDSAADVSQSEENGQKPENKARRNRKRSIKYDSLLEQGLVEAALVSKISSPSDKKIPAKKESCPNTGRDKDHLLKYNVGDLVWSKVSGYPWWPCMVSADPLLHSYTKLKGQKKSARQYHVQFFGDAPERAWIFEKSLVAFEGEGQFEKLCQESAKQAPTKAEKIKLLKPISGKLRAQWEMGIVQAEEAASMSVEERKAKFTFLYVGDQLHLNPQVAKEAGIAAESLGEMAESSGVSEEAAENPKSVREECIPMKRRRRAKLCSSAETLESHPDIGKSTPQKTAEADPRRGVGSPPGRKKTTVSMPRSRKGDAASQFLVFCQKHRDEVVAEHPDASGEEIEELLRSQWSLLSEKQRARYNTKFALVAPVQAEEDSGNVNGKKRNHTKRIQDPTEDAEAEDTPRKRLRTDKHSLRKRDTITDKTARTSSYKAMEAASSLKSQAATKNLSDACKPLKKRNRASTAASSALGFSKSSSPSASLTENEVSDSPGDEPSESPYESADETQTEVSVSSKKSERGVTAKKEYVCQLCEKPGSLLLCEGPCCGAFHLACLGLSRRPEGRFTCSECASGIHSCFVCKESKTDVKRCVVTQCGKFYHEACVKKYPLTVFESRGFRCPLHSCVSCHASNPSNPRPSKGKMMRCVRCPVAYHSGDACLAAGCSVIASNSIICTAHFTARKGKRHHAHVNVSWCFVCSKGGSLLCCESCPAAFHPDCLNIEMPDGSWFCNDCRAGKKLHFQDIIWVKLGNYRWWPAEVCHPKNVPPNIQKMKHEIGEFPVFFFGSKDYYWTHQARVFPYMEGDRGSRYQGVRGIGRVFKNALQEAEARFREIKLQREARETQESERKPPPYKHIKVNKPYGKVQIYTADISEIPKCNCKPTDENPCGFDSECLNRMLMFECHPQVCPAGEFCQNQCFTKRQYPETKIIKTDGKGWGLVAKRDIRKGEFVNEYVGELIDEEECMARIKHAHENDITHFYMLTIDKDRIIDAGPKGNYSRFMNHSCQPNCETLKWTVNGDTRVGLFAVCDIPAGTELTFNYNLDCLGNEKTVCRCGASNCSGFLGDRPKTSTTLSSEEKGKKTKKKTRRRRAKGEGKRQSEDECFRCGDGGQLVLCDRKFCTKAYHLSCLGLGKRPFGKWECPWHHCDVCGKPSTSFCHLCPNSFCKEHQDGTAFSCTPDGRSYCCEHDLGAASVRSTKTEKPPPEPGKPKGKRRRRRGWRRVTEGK", "assay": "Inhibition of NSD2 (unknown origin) using histone H4 (1 to 21 residues) peptide/SAM as substrate incubated for 210 mins in presence of SAM by AlphaLISA assay"}, "[5]": {"molecular_target": "T2, Histone-arginine methyltransferase CARM1 (Homo sapiens, UniProt Q86X55)", "T2 sequence (Q86X55 whole entry)": "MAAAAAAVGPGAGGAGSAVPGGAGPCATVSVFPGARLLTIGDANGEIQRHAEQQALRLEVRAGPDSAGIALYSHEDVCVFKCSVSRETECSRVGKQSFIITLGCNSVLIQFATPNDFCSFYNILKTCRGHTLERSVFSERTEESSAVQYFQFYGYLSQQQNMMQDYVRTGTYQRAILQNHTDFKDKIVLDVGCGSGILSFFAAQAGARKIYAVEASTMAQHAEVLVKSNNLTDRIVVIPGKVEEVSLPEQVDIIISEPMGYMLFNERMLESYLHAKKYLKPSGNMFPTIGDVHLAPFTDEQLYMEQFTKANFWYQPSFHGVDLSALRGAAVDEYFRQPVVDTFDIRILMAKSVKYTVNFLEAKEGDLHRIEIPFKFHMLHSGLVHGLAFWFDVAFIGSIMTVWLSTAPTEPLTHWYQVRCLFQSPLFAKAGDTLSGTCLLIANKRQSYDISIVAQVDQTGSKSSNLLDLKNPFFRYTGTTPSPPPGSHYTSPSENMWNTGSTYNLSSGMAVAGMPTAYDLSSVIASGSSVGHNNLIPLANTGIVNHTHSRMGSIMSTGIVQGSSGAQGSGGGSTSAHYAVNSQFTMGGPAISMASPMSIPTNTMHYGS", "assay": "Inhibition of PRMT4 (unknown origin) using histone H4 (1 to 21 residues) peptide/SAM as substrate incubated for 210 mins in presence of SAM by AlphaLISA assay"}, "[6]": {"tested_on": "A-375", "assay": "Induction of apoptosis in human A-375 cells assessed as total apoptotic cells at 1 uM incubated for 48 hrs by Annexin-V FITC/PI staining based flow cytometry analysis relative to control", "type": "functional"}, "[7]": {"tested_on": "A-375", "assay": "Induction of apoptosis in human A-375 cells assessed as total apoptotic cells at 2 uM incubated for 48 hrs by Annexin-V FITC/PI staining based flow cytometry analysis relative to control", "type": "functional"}, "[8]": {"assay": "Plasma protein binding in rat by LC-MS/MS analysis", "type": "ADME, cell-free", "details": "read-out: PPB (converted)"}, "[9]": {"assay": "Plasma protein binding in mouse by LC-MS/MS analysis", "type": "ADME, cell-free", "details": "read-out: PPB (converted)"}, "[10]": {"assay": "Half life in Sprague-Dawley rat at 3 mg/kg, iv measured for 0.25 to 24 hrs by LC-MS/MS analysis", "type": "ADME, organism-based", "details": "in vivo, time 0.25-24 hrs"}, "[11]": {"assay": "Half life in Sprague-Dawley rat at 10 mg/kg, po measured for 0.25 to 24 hrs by LC-MS/MS analysis", "type": "ADME, organism-based", "details": "in vivo, time 0.25-24 hrs"}, "[12]": {"assay": "AUC (0 to infinity) in Sprague-Dawley rat at 3 mg/kg, iv measured for 0.25 to 24 hrs by LC-MS/MS analysis", "type": "ADME, organism-based", "parameters": "time 0.25-24 hrs, dose 3 mg/kg, route iv", "details": "in vivo"}, "[13]": {"assay": "AUC (0 to infinity) in Sprague-Dawley rat at 10 mg/kg, po measured for 0.25 to 24 hrs by LC-MS/MS analysis", "type": "ADME, organism-based", "parameters": "dose 10 mg/kg, time upper 24 hrs, time lower 0.25 hrs, route po", "details": "in vivo"}, "[14]": {"tested_on": "A-375", "assay": "Antitumor activity against human A-375 cells xenografted in BALB/c mouse assessed as tumor growth inhibition at 75 mg/kg, po qd for 19 days and measured every 3 days", "type": "functional", "details": "A-375, 456 h, time 19 day, read-out: TGI"}}}
{"smiles": "C[C@H](Oc1ccc(-c2cc3c(C4=CCNCC4)ncnc3[nH]2)cc1)c1ccccc1", "values": [{"measurement": "IC50", "setting": "[1]", "result": 3.25, "unit": "µM"}, {"measurement": "half-life", "setting": "[2]", "result": 0.697, "unit": "h"}, {"measurement": "IC50", "setting": "[3]", "result": "> 20", "unit": "µM"}, {"measurement": "IC50", "setting": "[4]", "result": "> 20", "unit": "µM"}, {"measurement": "IC50", "setting": "[5]", "result": "> 20", "unit": "µM"}, {"measurement": "Activity", "setting": "[6]", "result": 14.14, "unit": "%"}, {"measurement": "Activity", "setting": "[7]", "result": 66.39, "unit": "%"}, {"measurement": "fraction unbound", "setting": "[8]", "result": 0.014}, {"measurement": "fraction unbound", "setting": "[9]", "result": 0.003}, {"measurement": "half-life", "setting": "[10]", "result": 2.58, "unit": "h"}, {"measurement": "half-life", "setting": "[11]", "result": 7.51, "unit": "h"}, {"measurement": "AUC", "setting": "[12]", "result": 173, "unit": "h/ng/mL"}, {"measurement": "AUC", "setting": "[13]", "result": 65.3, "unit": "h/ng/mL"}, {"measurement": "inhibition in vivo at 75 mg/kg", "setting": "[14]", "result": 73, "unit": "%"}]}
